How the values were obtained:
[1] = tested on: vagal gastric branch; assay: Vagal gastric branch afferent nerve activity recording after administration to stomach; type: in vivo, rat; details: 150 mM administered to stomach; urethane-anesthetized fasted Wistar rats; FIG. 4
Method: Rats (Wistar strain, males, 8 to 10 weeks age; Nippon Charles Liver) were fasted for 18 hours, laparotomy was conducted under anesthetization with urethane (1 g/kg; i.p.) and vagal gastric branch was exfoliated to an extent of about 5 mm. After vagal bundle was cut, it was placed on a small operation stand (8×6 mm), fat and bonded tissues around that were carefully detached and the terminal fiber at the side of organ was placed on a dipole electrode made of platinum for recording and insulated from the surrounding tissues by a mixture of liquid paraffin-vaseline (1:1). […]
Nerve action potential was amplified to an extent of 10,000-fold by a micropotential amplifier (DAM-80 manufactured by WPI); and after noise was reduced by a Vessel filter (4-pole, High Cut 10 Hz, Low Cut 1 KHz), it was subjected to an A/D conversion (Powerlab 4sp, manufactured by ADI Instruments, Inc.) and incorporated into a computer (sampling rate 3 KHz, iBook). At the same time, an amplified signal was separated by a window discriminator (DSE-435 manufactured by Daiya Medical Co., Ltd.) into a noise component and a nerve signal component together with monitoring by an oscilloscope, integrated for 5 seconds by a spike counter (DSE-335P manufactured by Daiya Medical Co., Ltd.) and recorded in a chart recorder (WT-465G manufactured by Nippon Koden Corporation). […]

[2] = target: T1, mGluRTβa (Rattus norvegicus, UniProt P23385); assay: Two-electrode membrane potential fixation measurement of calcium-dependent chloride current in Xenopus oocytes expressing mGluRTβa; type: cell-based; details: medium containing 50 mM, potential fixed at -70 mV, current disappeared on substituting the medium again, FIG. 6
T1 construct: expressed in transfected cells; host or cells: Xenopus oocytes injected with cRNA transcribed from pCRII-TOPO/mGluRTβ
T1 sequence (P23385 410-1199): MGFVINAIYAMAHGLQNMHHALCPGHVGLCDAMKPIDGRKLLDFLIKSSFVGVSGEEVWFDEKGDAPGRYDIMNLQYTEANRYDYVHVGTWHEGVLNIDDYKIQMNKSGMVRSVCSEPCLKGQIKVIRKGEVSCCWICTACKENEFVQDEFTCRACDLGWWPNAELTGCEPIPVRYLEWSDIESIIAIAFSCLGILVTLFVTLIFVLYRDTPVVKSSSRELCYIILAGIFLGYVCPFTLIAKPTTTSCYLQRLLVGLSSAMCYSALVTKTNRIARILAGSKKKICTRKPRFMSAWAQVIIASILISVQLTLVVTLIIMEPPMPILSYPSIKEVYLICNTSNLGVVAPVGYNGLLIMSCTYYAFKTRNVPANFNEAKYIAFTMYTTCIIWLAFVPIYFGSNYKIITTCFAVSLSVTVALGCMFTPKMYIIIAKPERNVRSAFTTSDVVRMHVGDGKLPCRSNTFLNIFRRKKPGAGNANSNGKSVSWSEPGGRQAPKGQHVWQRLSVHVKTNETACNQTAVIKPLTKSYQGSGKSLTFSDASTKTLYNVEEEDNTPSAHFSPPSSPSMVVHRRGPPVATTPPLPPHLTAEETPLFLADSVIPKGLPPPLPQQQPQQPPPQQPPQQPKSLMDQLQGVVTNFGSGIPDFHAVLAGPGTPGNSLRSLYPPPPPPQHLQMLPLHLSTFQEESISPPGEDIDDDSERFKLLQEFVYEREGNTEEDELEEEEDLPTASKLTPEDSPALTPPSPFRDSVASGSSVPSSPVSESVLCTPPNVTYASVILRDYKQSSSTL
Method: (§1) Oocyte-expressing strain of Xenopus was used for analysis of function of mGluR1 mRNA derived from circumvallate papilla of rats.
(§2) Female Xenopus (purchased from Watanabe Zoshoku) was bred in a fish tank until oocytes were isolated. The Xenopus was anesthetized with tricain methanesulfonate (MS 222, Sigma) dissolved in deionized water in a concentration of 1 g/L followed by buffering with NaHCO3 (500 mg/L). Anatomy was conducted by hand and oocytes in stages V and VI were recovered from ovary and incubated (for 30 minutes to 1 hour) in a 0.2% collagenase S-1 (Nitta Gelatin) until dissociation took place. After treating with collagenase, the oocytes were washed; follicles were removed; selection was conducted under a microscope; and incubation was carried out at 18° C. for one night.
(§3) Since the polymerase remains […] in PCR fragments, PCR-amplified mGluRTβa and mGluRTγa template DNA were inserted into pCRII-TOPO vector (Invitrogen) by a TOPO-TA cloning reaction. pCRII-TOPO/mGluRTγ vector and pCRII-TOPO/mGluRTβ vector were made into straight lines using EcoRV and XbaI, respectively, extracted with a mixture of phenol and chloroform and precipitated with ethanol together with sodium acetate. After a sequence analysis, cRNA was prepared using a transcription kit for Sp6 promoter made by Ambion (mMESSAGE mMACHINE kit) binding to pCRII-TOPO promoter.

[3] = tested on: oocytes into which cRNA was not injected; assay: Two-electrode membrane potential fixation measurement of membrane current in oocytes not injected with cRNA; type: cell-based, Xenopus; details: data not shown
Method: as §2

[4] = target: T2, mGluRTγa (Rattus norvegicus, UniProt P23385); assay: Two-electrode membrane potential fixation measurement of calcium-dependent chloride current in Xenopus oocytes expressing mGluRTγa; type: cell-based; details: potential fixed at -70 mV
T2 construct: expressed in transfected cells; host or cells: Xenopus oocytes injected with cRNA transcribed from pCRII-TOPO/mGluRTγ
T2 sequence (P23385 410-1199): as above
Method: as §1, §2, §3

Membrane current (calcium-dependent chloride current) [2]: continuous introvert current was induced | Membrane current (calcium-dependent chloride current) [4]: same introvert current was also observed
Compound: N[C@@H](CCC(=O)[O-])C(=O)[O-].[Na+].[Na+] [MSG, sodium L-glutamate]
Centripetal activity of vagal gastric branch [1]: accelerated | Membrane current (calcium-dependent chloride current) [3]: not observed
